Assay results taken from US20100273656A1, “COMPOSITION AND METHOD FOR SELECTIVE HERBICIDE” (priority 2002, published 2010).

Experiments:
perennial ryegrass [1] = experiment: Example 18 FeHEDTA with Killex, perennial ryegrass; format: in vivo
Protocol: (§1) Plants were fertilized with an all purpose water-soluble fertilizer mix of 20-20-20 (N-P-K; Plant-Prod®) as needed. All broadleaf weeds were grown individually in a 2¼-inch pot until they were a suitable size for herbicide tests (actual weed size is reported in examples below). Perennial ryegrass was also grown in 2¼-inch pots, however many grass seeds were sown in the pot to simulate a small section of turf. Grass plants were continually trimmed to a height of 4 cm, simulating that of a homeowner's lawn. For field tests, plots ¼ m^2 in size were marked out in areas containing the targeted broadleaf weed species growing in turf grass. Plots were continually mowed to simulate a homeowner's lawn. […] In all of the examples, the amounts of the various herbicide components are identified as a percent on a weight basis.
(§2) Killex® (Scotts Canada, Ltd., Ontario, Canada) is a commonly used selective lawn herbicide and was used as the commercial herbicide for herbicide combinations. The labeled dilution and application rates for Killex® are 6 ml into 1 L of solution (0.6%) applied at 200 ml/m^2.
(§3) All visual plant damage assessments were made using a quantitative rating scale; percent control relative to the untreated check (0=no effect; 100=plant death).
(§4) Materials and Methods: This trial was conducted in the greenhouse. Nine pots of white clover and 10 pots of perennial ryegrass were selected for each treatment. Herbicide solutions were prepared using deionized water. The treatments were applied using a hand-trigger sprayer at 200 ml/m^2. All treatments were applied once. Phytotoxicity (%) was assessed 4, 7, and 14 days after application (A4, A7, and A14).

dandelion = experiment: Example 21 Fe chelates with Killex, dandelion; format: in vivo, Taraxacum officinale; conditions: A29 = 29 days after treatment
Protocol: as §1, §2, §3
Materials and Methods: This trial was conducted in the greenhouse. […] Phytotoxicity (%) was assessed 29 days after treatment (A29).

dandelions [2] = experiment: Example 1 field test of iron chelates, dandelion damage; format: in vivo, Taraxacum officinale; conditions: sprayed once at 100 ml/m^2, 5 days after spraying
Protocol: (§5) The following non-limiting examples serve to further describe the invention. Unless otherwise specified, all of the iron solutions were made using the same molar concentration of iron ion as chelating agent. All of the outside tests were done on areas of mixed grass and dandelions that were at least 2 months old. For the greenhouse tests, dandelions were grown in a commercial greenhouse mix, using supplemental lighting and heating. Each plant was grown in a 2¼ inch pot to a minimum diameter of 20 cm. All of the solutions were sprayed onto the plants at a rate of 100 ml/m^2. The ferrous sulfate formulations that were used in examples 1, 2, 8 and 9 contained 1% iron (180 mM), 18 mM EDTA, 1% citric acid and 0.5% urea. In all of the examples, the amount of iron is identified in brackets as the percent iron on a weight basis.
(§6) All plant damage was assessed using a qualitative rating scale from 0 to 9.
All of the iron chelates were sprayed once at 0.2% Fe^+3 (35.8 mM), at a volume of 100 ml/m^2 onto 0.5 m^2 areas of mixed grass and dandelions. The spraying of the test was followed by 2 days of rain-free weather. Observations were made 5 days after spraying.

perennial ryegrass [3] = experiment: Example 17 iron chelates with Killex, perennial ryegrass; format: in vivo
Protocol: as §1, §2, §3
as §4, with “Herbicidal” for “Herbicide”, “handheld trigger” for “hand-trigger”

[4] = tested on: chickweed scarlet pimpernel (Anagallis arvensis); experiment: Example 12 FeHEDTA field test, chickweed scarlet pimpernel; format: in vivo; conditions: for Survival of Chickweed Plants (%): day 7/day 0
Protocol: This test evaluated FeHEDTA with 0.15% and 0.2% Fe for controlling the chickweed scarlet pimpernel (Anagallis arvensis) and dandelion (Taraxacum officinale). The solution contained 1.3 times the molar amount of chelating agent as iron. Field areas of well established chickweed and dandelion (0.5 m^2) were sprayed at a rate of 100 ml/m^2.

white clover = experiment: Example 22 field test FeIDS and/or FeHEDTA with Killex, white clover; format: in vivo; conditions: A7 = 7 days after treatment
Protocol: as §1, with “basis. […]” for “basis.”
as §3
(§7) Materials and Methods: Plots ¼ m^2 in size were marked out in white clover and Park Lawn (turfgrass mixture comprising of 65% perennial ryegrass, 25% chewings/creeping red fescue and 10% Kentucky bluegrass) area in the field. […] Phytotoxicity (%) was assessed on 7 days after treatment (A7).

dandelions [5] = experiment: Example 2 field test of FeEDDS and FeHEDTA at pH 3 and 7, dandelion; format: in vivo, Taraxacum officinale
Protocol: as §5, §6
The FeEDDS and FeHEDTA solutions contained 0.2% Fe^+3 (35.8 mM). The ferrous sulfate contained 1% Fe^+2 (179.1 mM). The solutions were sprayed at a rate of 0.1 L/m^2 onto 2 plots of 0.5 m^2 of mixed grass and dandelions. Observations were made 4 days after spraying.

Park Lawn = experiment: Example 22 field test FeIDS and/or FeHEDTA with Killex, Park Lawn; format: in vivo; conditions: A7 = 7 days after treatment
Protocol: as §1, with “basis. […]” for “basis.”
as §3, §7

dandelions [6] = experiment: Example 6 various Fe chelates, dandelion phytotoxicity; format: in vivo, Taraxacum officinale
Protocol: as §5, §6
This test compared EDG (ethanol diglycine) and EDDS at 0.4% Fe+3 (71.6 mM), with HEDTA 0.2% Fe+3 (35.8 mM). FeEDDS and FeEDG were made with 100% excess chelating agent. FeHEDTA was made with 10% excess chelating agent. The solutions were sprayed onto greenhouse grown dandelions. The plants were resprayed after 7 days.

O=C([O-])CN(CCO)CCN(CC(=O)[O-])CC(=O)[O-].[Fe+3] [FeHEDTA]
Phytotoxicity (%) on perennial ryegrass (perennial ryegrass [1]; A4): 2%
Phytotoxicity (%) on perennial ryegrass (perennial ryegrass [1]; A7): 1%
Phytotoxicity (%) on perennial ryegrass (perennial ryegrass [1]; A14): 2%
Phytotoxicity (%) against dandelion (dandelion): 24%
Dandelion Damage (0 to 9) (dandelions [2]): 8.9 0 to 9
Phytotoxicity (%) against perennial ryegrass (perennial ryegrass [3]; A4): 8%
Phytotoxicity (%) against perennial ryegrass (perennial ryegrass [3]; A7): 7%
Phytotoxicity (%) against perennial ryegrass (perennial ryegrass [3]; A14): 1%
Chickweed Plants (#/0.5 m^2) ([4]; 7 days after spraying, listed as FeHEDTA (0.15% Fe)): 8 #/0.5 m^2
Chickweed Plants (#/0.5 m^2) ([4]; 7 days after spraying, listed as FeHEDTA (0.20% Fe)): 4 #/0.5 m^2
numbers of chickweed plants, in words ([4]; Example 12, text): significantly reduced
Chickweed Plants (#/0.5 m^2) ([4]; day 0, listed as FeHEDTA (0.15% Fe)): 15 #/0.5 m^2
Chickweed Plants (#/0.5 m^2) ([4]; day 0, listed as FeHEDTA (0.20% Fe)): 25 #/0.5 m^2
Survival of Chickweed Plants (%) ([4]; listed as FeHEDTA (0.15% Fe)): 53%
Survival of Chickweed Plants (%) ([4]; listed as FeHEDTA (0.20% Fe)): 16%
Phytotoxicity (%) against white clover (white clover): 48%
Dandelion Damage (0 to 9) (dandelions [5]; solution pH 2.6-3.0, 0.1 L/m^2, 4 days after spraying): 7.0 0 to 9
Dandelion Damage (0 to 9) (dandelions [5]; solution pH 7.0-7.1, 0.1 L/m^2, 4 days after spraying): 7.5 0 to 9
Phytotoxicity (%) on Park Lawn (Park Lawn): 3%
Dead Plants (#/10) (dandelions [6]; 7 + 5 days after spraying): 3 #/10
Plant Damage (0 to 9) (dandelions [6]; 7 + 5 days after spraying (resprayed after 7 days)): 8.1 0 to 9
Plant Damage (0 to 9) (dandelions [6]; 7 days after spraying): 1.3 0 to 9
